Laboratory results: patent publication US5013841A, “Oxo quinoline derivatives” (Dainippon Pharmaceutical Co., Ltd., priority 1987, dated 1991)
≈ marks a conversion by molar mass, not a printed value. Where two headings read alike, the source gives them in different places.

Tests used:
[1] = Acute oral toxicity in mice; settings: mouse, in vivo, male mice (ddY), 7 days, Behrens-Kaerber method, read-out: median lethal dose (LD50)
Procedure: A suspension containing each of compounds of this invention in various concentrations was orally given to male mice (ddY) at a dose of 0.1 ml per 10 g of body weight. The number of dead mice was counted after 7 days, and the value of median lethal dose (LD50, mg/kg) was calculated in accordance with the Behrens-Kaerber method.

M. pneumoniae Mac = assay: Antimycoplasma activity (twofold agar dilution method); assay type: cell-based, Mycoplasma pneumoniae; settings: Mycoplasmoides pneumoniae, 168 h; M. pneumoniae Mac; Chanock agar, 37° C., 7 days, aerobic, calculated for free base; read-out: minimum inhibitory concentration (MIC)
Procedure: (§1) The figures in the table show minimum inhibitory concentrations (MIC), (μg/ml), calculated for free base.
(§2) Minimum inhibitory concentrations (MIC) were determined by the twofold agar dilution method. The media used were Chanock broth and agar PPLD broth and agar (Difco) supplemented with 20% horse serum and 10% fresh yeast extract). A 2-3 day broth culture of organisms was diluted with Chanock broth to a cell density of about 10^6 cells/ml. One loopful (about […]) of the organism dilution was spotted onto 10-ml drug containing Chanock agar in petri dishes using a multiple inoculator (Cathra International). The petri dishes were incubated at 37° C. for 7 and 2 days for Mycoplasma pneumoniae and other Mycoplasma spp. respectively. Incubation was performed anaerobically using the Gaspak anaerobic system (BBL) for M. buccale, M. fermentans, M. hominis, M. orale and M. salivarium, and aerobically for other Mycoplasma spp. The MIC was defined as the lowest compound concentration at which no growth of organism was detected.

[2] = test system: C. Trachomatics G/ur 1467; assay: Antichlamydia activity (inclusion bodies in McCoy cells); assay type: cell-based; settings: 36° C., 40-48 h, calculated for free base, read-out: minimum inhibitory concentration (MIC)
Procedure: (§3) Minimum inhibitory concentrations (MIC) were determined as follows. McCoy cells were freshly cultured in Eagle's minimum essential medium (EMEM) (Flow) supplemented with 4% fetal bovine serum and 0.03% L-glutamine. The cells were trypsinized and suspended in the same culture medium at a cell concentration of 1-2×10^5 cells/ml. One ml of the cell suspension was pipetted into flat-bottomed plastic tubes (14 mm in diameter) containing a cover slip (12 mm in diameter). The tubes were incubated in 5% CO2 -air at 36° C. for 20 hours. One-half ml of a chlamydial suspension (ca. 1-4×10^3 inclusion body forming units) was added into each tube, which was then centrifuged at 1500×g for 60 minutes. The tubes were incubated for 1 hour at 36° C. The medium was changed with 1 ml of EMEM supplemented with 8% fetal bovine serum, 0.03% L-blutamine, 1μg/ml cycloheximide and 0.5% glucose, and containing drugs at various concentrations. After further incubation at 36° C. for 40-48 hours, the cells on the cover glasses were stained with the Giemsa's solution. […] The MIC was defined as the lowest drug concentration where there were no inclusion bodies in all the cells on the cover slip.

[3] = test system: C. Trachomatics G/ur 1317; assay: as above; assay type: cell-based; settings: 36° C., 40-48 h, calculated for free base, read-out: minimum inhibitory concentration (MIC)
Procedure: as §3

C. Trachomatics G/ur 931 = assay: as above; assay type: cell-based; settings: 36° C., 40-48 h, calculated for free base, read-out: minimum inhibitory concentration (MIC)
Procedure: as §3

[4] = test system: C. Trachomatics G/ur 1483; assay: as above; assay type: cell-based; settings: 36° C., 40-48 h, calculated for free base, read-out: minimum inhibitory concentration (MIC)
Procedure: as §3

S. aureus 209 JC-1 = assay: In vitro antibacterial activity (twofold agar-dilution method); assay type: cell-based; settings: Staphylococcus aureus, read-out: minimum inhibitory concentration (MIC)
Procedure: (§4) The figures in the table show minimum inhibitory concentrations (MIC) (μg/ml), calculated for free base. The minimum inhibitory concentration was determined by the twofold agar-dilution method, which was recommended by Japan Society of Chemotherapy (Chemotherapy, 29(1), 76(1981)), using Muller-Hinton agar. One loopful of an overnight culture of test organisms in Mueller-Hinton broth was inoculated onto 10-ml drug-containing agar layers in petri dishes. Bacterial inocula contained approximately 10^6 colonyl-formingunits. Bacterial growth was observed after 20-hour incubation at 37° C. The MIC was defined as the lowest drug concentration which prevented visible bacterial growth.

P. Aeruginosa 12 = assay: as above; assay type: cell-based; settings: Pseudomonas aeruginosa, 20 h, read-out: minimum inhibitory concentration (MIC)
Procedure: as §4

S. marcescens IFO 3736 = assay: as above; assay type: cell-based; settings: Serratia marcescens, IFO3736; S. marcescens IFO 3736; agar dilution, 20 h, 37° C., calculated for free base; read-out: minimum inhibitory concentration (MIC)
Procedure: as §4

M. arginini G-230 = assay: Antimycoplasma activity (twofold agar dilution method); assay type: cell-based; settings: 48 h, read-out: minimum inhibitory concentration (MIC)
Procedure: as §1, §2

M. salivarium PG-20 = assay: as above; assay type: cell-based; settings: 48 h, read-out: minimum inhibitory concentration (MIC)
Procedure: as §1, §2

M. fermentans PG-18 = assay: as above; assay type: cell-based; settings: Mycoplasmopsis fermentans, PG18, 48 h; M. fermentans PG-18; Chanock agar, 37° C., 2 days, anaerobic, calculated for free base; read-out: minimum inhibitory concentration (MIC)
Procedure: as §1, §2

M. hominis PG-21 = assay: as above; assay type: cell-based; settings: Metamycoplasma hominis, PG21, 48 h; M. hominis PG-21; Chanock agar, 37° C., 2 days, anaerobic, calculated for free base; read-out: minimum inhibitory concentration (MIC)
Procedure: as §1, §2

M. hyorhinis BST-7 = assay: as above; assay type: cell-based; settings: Mesomycoplasma hyorhinis, BST7, 48 h, read-out: minimum inhibitory concentration (MIC)
Procedure: as §1, §2

A. laidlawii PG-8 = assay: as above; assay type: cell-based; settings: Acholeplasma laidlawii, PG8, 48 h, read-out: minimum inhibitory concentration (MIC)
Procedure: as §1, §2

M. orale CH-19299 = assay: as above; assay type: cell-based; settings: 48 h, read-out: minimum inhibitory concentration (MIC)
Procedure: as §1, §2

M. buccale CH-20249 = assay: as above; assay type: cell-based; settings: 48 h, read-out: minimum inhibitory concentration (MIC)
Procedure: as §1, §2

| Structure (SMILES) | LD50 at 168 h [1] [mg/kg] | MIC (M. pneumoniae Mac) [µg/mL] | MIC [2] [µg/mL] | MIC [3] [µg/mL] | MIC (C. Trachomatics G/ur 931) [µg/mL] | MIC [4] [µg/mL] | MIC (S. marcescens IFO 3736) [µg/mL] | MIC (M. fermentans PG-18) [µg/mL] | MIC (M. hominis PG-21) [µg/mL] | other results |
| --- | --- | --- | --- | --- | --- | --- | --- | --- | --- | --- |
| Nc1c(F)c(N2CCNCC2)cc2c1c(=O)c(C(=O)O)cn2C1CC1 [Compound 1] | > 2000 | 0.1 (≈ 0.289 µM) | 0.25 (≈ 0.722 µM) | 0.25 (≈ 0.722 µM) | 0.25 (≈ 0.722 µM) | 0.25 (≈ 0.722 µM) | 0.1 (≈ 0.289 µM) | 0.1 (≈ 0.289 µM) | 0.39 (≈ 1.13 µM) | MIC (S. aureus 209 JC-1; 209JC1, S. aureus 209 JC-1, agar dilution, 20 h, 37° C., calculated for free base): 0.025 µg/mL (≈ 0.0722 µM); MIC (P. Aeruginosa 12; P. Aeruginosa 12, agar dilution, 37° C., calculated for free base): 0.05 µg/mL (≈ 0.144 µM); MIC (M. arginini G-230; M. arginini G-230, Chanock agar, 37° C., 2 days, aerobic, calculated for free base): 0.1 µg/mL (≈ 0.289 µM); MIC (M. salivarium PG-20; M. salivarium PG-20, Chanock agar, 37° C., 2 days, anaerobic, calculated for free base): 1.56 µg/mL (≈ 4.5 µM); MIC (M. hyorhinis BST-7; M. hyorhinis BST-7, Chanock agar, 37° C., 2 days, aerobic, calculated for free base): 0.1 µg/mL (≈ 0.289 µM); MIC (A. laidlawii PG-8; A. laidlawii PG-8, Chanock agar, 37° C., 2 days, aerobic, calculated for free base): 0.1 µg/mL (≈ 0.289 µM); MIC (M. orale CH-19299; M. orale CH-19299, Chanock agar, 37° C., 2 days, anaerobic, calculated for free base): 0.39 µg/mL (≈ 1.13 µM); MIC (M. buccale CH-20249; M. buccale CH-20249, Chanock agar, 37° C., 2 days, anaerobic, calculated for free base): 0.1 µg/mL (≈ 0.289 µM) |
| C[C@@H]1CN(c2cc3c(c(N)c2F)c(=O)c(C(=O)O)cn3C2CC2)C[C@H](C)N1 [Compound 2, 5-amino-1-cyclopropyl-6-fluoro-7-(cis-3,5-dimethyl-1-piperazinyl)-1,4-dihydro-4-oxoquinoline-3-carboxylic acid] | > 2000 | 0.1 (≈ 0.267 µM) | 0.063 (≈ 0.168 µM) | 0.063 (≈ 0.168 µM) | 0.063 (≈ 0.168 µM) | 0.063 (≈ 0.168 µM) | 0.78 (≈ 2.08 µM) | 0.025 (≈ 0.0668 µM) | 0.1 (≈ 0.267 µM) | MIC (S. aureus 209 JC-1; 209JC1, 20 h): 0.1 µg/mL (≈ 0.267 µM); MIC (P. Aeruginosa 12): 0.39 µg/mL (≈ 1.04 µM); MIC (M. arginini G-230): 0.05 µg/mL (≈ 0.134 µM); MIC (M. salivarium PG-20): 0.39 µg/mL (≈ 1.04 µM); MIC (M. hyorhinis BST-7): 0.05 µg/mL (≈ 0.134 µM); MIC (A. laidlawii PG-8): 0.05 µg/mL (≈ 0.134 µM); MIC (M. orale CH-19299): 0.39 µg/mL (≈ 1.04 µM); MIC (M. buccale CH-20249): 0.05 µg/mL (≈ 0.134 µM) |
